Data: ChEMBL document CHEMBL1649227, “In vitro antiviral activity of V-073 against polioviruses” (Antimicrob Agents Chemother, 2009)
Converted amounts (≈) assume the structure as drawn.

What was measured:
Enterovirus C [1] = assay: Antiviral activity against Poliovirus 10243 serotype PV2 obtained from immunodeficient chronic excretor infected in […] LLC-MK2 cells assessed as inhibition of viral-replication induced cytopathic effect; format: functional, organism-based; details: 10243 serotype PV2, LLC-MK2
Enterovirus C [2] = assay: Antiviral activity against Poliovirus 10221 serotype PV2 obtained from immunodeficient chronic excretor infected in […] LLC-MK2 cells assessed as inhibition of viral-replication induced cytopathic effect; format: functional, organism-based; details: 10221 serotype PV2, LLC-MK2
Enterovirus C [3] = assay: Antiviral activity against Poliovirus 10228 serotype PV2 obtained from immunodeficient chronic excretor infected in […] LLC-MK2 cells assessed as inhibition of viral-replication induced cytopathic effect; format: functional, organism-based; details: 10228 serotype PV2, LLC-MK2
Enterovirus C [4] = assay: Antiviral activity against Poliovirus 10226 serotype PV2 obtained from immunodeficient chronic excretor infected in […] LLC-MK2 cells assessed as inhibition of viral-replication induced cytopathic effect; format: functional, organism-based; details: 10226 serotype PV2, LLC-MK2
Enterovirus C [5] = assay: Antiviral activity against Poliovirus 10227 serotype PV2 obtained from immunodeficient chronic excretor infected in […] LLC-MK2 cells assessed as inhibition of viral-replication induced cytopathic effect; format: functional, organism-based; details: 10227 serotype PV2, LLC-MK2
Enterovirus C [6] = assay: Antiviral activity against Poliovirus Lansing serotype PV2 infected in […] LLC-MK2 cells assessed as inhibition of viral-replication induced cytopathic effect; format: functional, organism-based
Enterovirus C [7] = assay: Antiviral activity against Poliovirus MEF-1 serotype PV2 infected in […] LLC-MK2 cells assessed as inhibition of viral-replication induced cytopathic effect; format: functional, organism-based; details: MEF-1 serotype PV2, LLC-MK2
Enterovirus C [8] = assay: Antiviral activity against Poliovirus P712 serotype PV2 vaccine-derived infected in […] LLC-MK2 cells assessed as inhibition of viral-replication induced cytopathic effect; format: functional, organism-based
Enterovirus C [9] = assay: Antiviral activity against Poliovirus PV2-P712 serotype PV2 obtained from immunodeficient chronic excretor infected in […] LLC-MK2 cells assessed as inhibition of viral-replication induced cytopathic effect; format: functional, organism-based
Enterovirus C [10] = assay: Antiviral activity against Poliovirus 10804 serotype PV3 obtained from immunodeficient chronic excretor infected in […] LLC-MK2 cells assessed as inhibition of viral-replication induced cytopathic effect; format: functional, organism-based; details: 10804 serotype PV3, LLC-MK2
Enterovirus C [11] = assay: Antiviral activity against Poliovirus 10805 serotype PV3 infected in […] LLC-MK2 cells assessed as inhibition of viral-replication induced cytopathic effect; format: functional, organism-based; details: 10805 serotype PV3, LLC-MK2
Enterovirus C [12] = assay: Antiviral activity against Poliovirus Saukett serotype PV3 infected in […] LLC-MK2 cells assessed as inhibition of viral-replication induced cytopathic effect; format: functional, organism-based
Enterovirus C [13] = assay: Antiviral activity against Poliovirus Leon serotype PV3 infected in […] LLC-MK2 cells assessed as inhibition of viral-replication induced cytopathic effect; format: functional, organism-based
Enterovirus C [14] = assay: Antiviral activity against Poliovirus PV3-Leon serotype PV3 vaccine-derived infected in […] LLC-MK2 cells assessed as inhibition of viral-replication induced cytopathic effect; format: functional, organism-based
[15] = Selectivity index, ratio of CC50 for human HeLa cells to EC50 for poliovirus; format: toxicity, cell-based; details: read-out: Ratio CC50/EC50
[16] = Selectivity index, ratio of CC50 for african green monkey BGMK cells to EC50 for poliovirus; format: toxicity, cell-based; details: read-out: Ratio CC50/EC50
HeLa = assay: Cytotoxicity against human HeLa cells after 18 to 24 hrs by MTT assay; format: cell-based
[17] = Cytotoxicity against african green monkey BGMK cells after 18 to 24 hrs by MTT assay; format: cell-based; details: chlorocebus aethiops
Coxsackievirus A9 = assay: Antiviral activity against Coxsackievirus serotype A9 infected in african green monkey BGMK cells assessed as inhibition of virus induced cytopathic effect after 18 to 24 hrs; format: functional, organism-based; details: Enterovirus B
Coxsackievirus B1 = assay: Antiviral activity against Coxsackievirus serotype B1 infected in african green monkey BGMK cells assessed as inhibition of virus induced cytopathic effect after 18 to 24 hrs; format: functional, organism-based; details: Enterovirus B
Coxsackievirus B2 = assay: Antiviral activity against Coxsackievirus serotype B2 infected in african green monkey BGMK cells assessed as inhibition of virus induced cytopathic effect after 18 to 24 hrs; format: functional, organism-based; details: Enterovirus B
Coxsackievirus B3 = assay: Antiviral activity against Coxsackievirus serotype B3 infected in african green monkey BGMK cells assessed as inhibition of virus induced cytopathic effect after 18 to 24 hrs; format: functional, organism-based; details: Enterovirus B
Coxsackievirus B4 = assay: Antiviral activity against Coxsackievirus serotype B4 infected in african green monkey BGMK cells assessed as inhibition of virus induced cytopathic effect after 18 to 24 hrs; format: functional, organism-based; details: Enterovirus B
Coxsackievirus B5 = assay: Antiviral activity against Coxsackievirus serotype B5 infected in african green monkey BGMK cells assessed as inhibition of virus induced cytopathic effect after 18 to 24 hrs; format: functional, organism-based; details: Enterovirus B
enterovirus D68 = assay: Antiviral activity against Enterovirus serotype 68 infected in african green monkey BGMK cells assessed as inhibition of virus induced cytopathic effect after 18 to 24 hrs; format: functional, organism-based; details: Enterovirus D
Human enterovirus 70 = assay: Antiviral activity against Enterovirus serotype 70 infected in african green monkey BGMK cells assessed as inhibition of virus induced cytopathic effect after 18 to 24 hrs; format: functional, cell-based, enterovirus D70; details: Enterovirus D
Enterovirus A71 = assay: Antiviral activity against Enterovirus serotype 71 infected in african green monkey BGMK cells assessed as inhibition of virus induced cytopathic effect after 18 to 24 hrs; format: functional, organism-based; details: Enterovirus A
[18] = Solubility of the compound; format: physicochemical

`COc1ccc(OCc2ccc(COc3c(Cl)cccc3Cl)cc2)c(Cl)c1` gave an EC50 (Enterovirus C [1]) of 0.038 µM, an EC50 (Enterovirus C [2]) of 0.027 µM and an EC50 (Enterovirus C [3]) of 0.126 µM. It also gave an EC50 (Enterovirus C [4]) of 0.019 µM, an EC50 (Enterovirus C [5]) of 0.019 µM and an EC50 (Enterovirus C [6]) of 0.007 µM. For the same compound, the EC50 (Enterovirus C [7]) was 0.026 µM, the EC50 (Enterovirus C [8]) was 0.003 µM and the EC50 (Enterovirus C [9]) was 0.016 µM. The EC50 (Enterovirus C [10]) was 0.042 µM, the EC50 (Enterovirus C [11]) was 0.029 µM and the EC50 (Enterovirus C [12]) was 0.062 µM. The EC50 (Enterovirus C [13]) was 0.109 µM, the EC50 (Enterovirus C [14]) was 0.02 µM and the selectivity ratio [15] was 75. The selectivity ratio [16] was 75, the Activity (HeLa) was > 50 µg/mL and the Activity [17] was > 50 µg/mL. It also gave an EC50 (Coxsackievirus A9) of 3.79 µM, an EC50 (Coxsackievirus B1) of 3.79 µM and an EC50 (Coxsackievirus B2) of 3.79 µM. For the same compound, the EC50 (Coxsackievirus B3) was 3.79 µM, the EC50 (Coxsackievirus B4) was 3.79 µM and the EC50 (Coxsackievirus B5) was 3.79 µM. The MIC90 (enterovirus D68) was 1.42 µM (≈ 0.602 µg/mL), the EC50 (enterovirus D68; BGMK) was 3.47 µM and the MIC90 (Human enterovirus 70) was 1.42 µM (≈ 0.602 µg/mL). For the same compound, the EC50 (Human enterovirus 70; BGMK) was 3.47 µM, the MIC90 (Enterovirus A71) was 1.42 µM (≈ 0.602 µg/mL) and the EC50 (Enterovirus A71; BGMK) was 3.47 µM. For the same compound, the solubility [18] was 14 µM (≈ 5.93 µg/mL).
